Data on 13 compounds can be found in ChEMBL document CHEMBL5465560, “Selectivity Literature for EUbOPEN Chemogenomic Library” (2024).

Each structure is given as a SMILES string.

Experiment [1] concerns the target Mitogen-activated protein kinase 10 (Homo sapiens, UniProt P53779). Description: Selectivity interaction (LanthaScreen Eu Kinase Binding Assay) EUB0001632a MAPK10. The settings on record: at 10 µM. For orientation: TR-FRET usually uses a lanthanide donor and a delayed reading to cut background.
Experiment [2] has as its target Cyclin-dependent kinase-like 1 (Homo sapiens) (UniProt Q00532). Description: Selectivity interaction (KinomeScan (DiscoverX)) EUB0000595a CDKL1. As to conditions: at 10 µM.
Experiment [3] deals with Vascular endothelial growth factor receptor 1 (Homo sapiens) (UniProt P17948). Description: Selectivity interaction (KinomeScan (DiscoverX)) EUB0000666a FLT1. The settings on record: at 10 µM.
Experiment [4] deals with T1, Protein kinase C theta type (Homo sapiens, UniProt Q04759). Description: Selectivity interaction (KinomeScan (DiscoverX)) EUB0000607a PRKCQ. As to conditions: at 10 µM.
In experiment [5] the target is Mitogen-activated protein kinase 3 (Homo sapiens, UniProt P27361). The settings on record: at 10 µM.
Experiment [6] deals with Tyrosine-protein kinase Fyn (Homo sapiens) (UniProt P06241). Description: Selectivity interaction (Kinase panel (Invitrogen)) EUB0000639a FYN. As to conditions: at 200 nM.
Experiment [7] deals with Serine/threonine-protein kinase PLK1 (Homo sapiens, UniProt P53350). Description: Selectivity interaction (ActivX KiNativ screen (kinase selectivity in THP-1 cell lysates)) EUB0000639a PLK1. The format is subcellular. The settings on record: lysate.
Experiment [8] concerns the target T2, Serine/threonine-protein kinase STK11 (Homo sapiens) (UniProt Q15831).
T2 sequence (whole entry): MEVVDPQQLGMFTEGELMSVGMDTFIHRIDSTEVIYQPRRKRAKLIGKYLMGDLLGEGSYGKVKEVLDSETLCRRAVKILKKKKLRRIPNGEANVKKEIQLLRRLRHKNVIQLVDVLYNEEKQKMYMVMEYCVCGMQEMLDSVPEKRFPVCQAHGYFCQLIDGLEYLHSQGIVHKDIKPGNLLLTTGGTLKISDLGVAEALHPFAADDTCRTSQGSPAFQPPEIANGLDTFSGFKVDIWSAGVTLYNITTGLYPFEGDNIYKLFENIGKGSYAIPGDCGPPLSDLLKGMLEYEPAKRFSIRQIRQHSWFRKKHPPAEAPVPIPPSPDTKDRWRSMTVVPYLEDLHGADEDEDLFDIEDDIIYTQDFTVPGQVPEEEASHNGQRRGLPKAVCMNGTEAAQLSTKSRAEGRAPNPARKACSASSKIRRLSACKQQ
Description: Selectivity interaction (KinomeScan (DiscoverX)) EUB0000045b STK11.

Experiment [9] deals with Casein kinase I isoform gamma-1 (Homo sapiens) (UniProt Q9HCP0). Description: Selectivity interaction (KinomeScan (DiscoverX)) EUB0000045b CSNK1G1.
In experiment [10] the target is Casein kinase II subunit alpha' (Homo sapiens) (UniProt P19784). Description: Selectivity interaction (KinomeScan (DiscoverX)) EUB0000045b CSNK2A2.
For experiment [11], the target named is Insulin-like growth factor 1 receptor (Homo sapiens, UniProt P08069). Description: Selectivity interaction (KinomeScan (DiscoverX)) EUB0000045b IGF1R.
The target in experiment [12] is Phosphorylase b kinase gamma catalytic chain, skeletal muscle/heart isoform (Homo sapiens) (UniProt Q16816). Description: Selectivity interaction (Ambit KINOMEscan and KiNATiv profiling in Jurkat cells) EUB0000090b PHKG1. In kind it is cell-based. The settings on record: at 1 µM.
Experiment [13] concerns the target Bone morphogenetic protein receptor type-1A (Homo sapiens, UniProt P36894). Description: Selectivity interaction (KinomeScan (DiscoverX)) EUB0001049a BMPR1A. As to conditions: at 1 µM.
Experiment [14] deals with T1, Protein kinase C theta type. Description: Selectivity interaction (KinomeScan (DiscoverX)) EUB0000618a PRKCQ. As to conditions: at 10 µM.
For experiment [15], the target named is Calcium/calmodulin-dependent protein kinase type II subunit gamma (Homo sapiens) (UniProt Q13555). Description: Selectivity interaction (KinomeScan (DiscoverX)) EUB0000618a CAMK2G. The settings on record: at 10 µM.
Experiment [16] concerns the target T3, Ankyrin repeat and protein kinase domain-containing protein 1 (Homo sapiens) (UniProt Q8NFD2).
T3 sequence (whole entry): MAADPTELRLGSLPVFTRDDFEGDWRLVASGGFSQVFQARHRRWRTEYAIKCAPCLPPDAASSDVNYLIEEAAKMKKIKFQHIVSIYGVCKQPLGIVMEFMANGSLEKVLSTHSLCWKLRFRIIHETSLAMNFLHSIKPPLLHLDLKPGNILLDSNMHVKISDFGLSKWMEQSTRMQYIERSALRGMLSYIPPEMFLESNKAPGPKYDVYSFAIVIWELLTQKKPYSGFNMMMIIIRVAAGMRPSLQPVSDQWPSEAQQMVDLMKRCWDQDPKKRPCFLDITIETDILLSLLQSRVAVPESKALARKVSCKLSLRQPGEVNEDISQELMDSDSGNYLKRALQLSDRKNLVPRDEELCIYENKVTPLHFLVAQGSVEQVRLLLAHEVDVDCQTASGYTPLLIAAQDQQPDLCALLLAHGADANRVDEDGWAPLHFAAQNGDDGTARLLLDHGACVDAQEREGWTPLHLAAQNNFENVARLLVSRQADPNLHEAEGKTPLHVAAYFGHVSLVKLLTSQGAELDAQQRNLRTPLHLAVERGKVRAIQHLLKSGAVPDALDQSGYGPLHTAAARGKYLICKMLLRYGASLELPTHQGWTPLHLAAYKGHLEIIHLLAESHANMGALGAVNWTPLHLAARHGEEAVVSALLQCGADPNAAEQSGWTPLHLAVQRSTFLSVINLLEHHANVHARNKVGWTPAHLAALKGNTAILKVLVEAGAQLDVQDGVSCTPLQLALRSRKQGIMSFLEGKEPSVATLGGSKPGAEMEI
Description: Selectivity interaction (KinomeScan (DiscoverX)) EUB0000092b ANKK1. As to conditions: at 10 µM.

Experiment [17] concerns the target Kappa-type opioid receptor (Homo sapiens, UniProt P41145). Description: Selectivity interaction (Panel of kinases, GPCRs, ion channels and transporters (enzymatic assay)) EUB0000266bCl OPRK1.
Experiment [18] addresses Serine/threonine-protein kinase PAK 1 (Homo sapiens) (UniProt Q13153). Description: Selectivity interaction (KinomeScan (DiscoverX)) EUB0000229b PAK1. As to conditions: at 10 µM.

Chain of Serine/threonine-protein kinase PLK1 (P53350 whole entry): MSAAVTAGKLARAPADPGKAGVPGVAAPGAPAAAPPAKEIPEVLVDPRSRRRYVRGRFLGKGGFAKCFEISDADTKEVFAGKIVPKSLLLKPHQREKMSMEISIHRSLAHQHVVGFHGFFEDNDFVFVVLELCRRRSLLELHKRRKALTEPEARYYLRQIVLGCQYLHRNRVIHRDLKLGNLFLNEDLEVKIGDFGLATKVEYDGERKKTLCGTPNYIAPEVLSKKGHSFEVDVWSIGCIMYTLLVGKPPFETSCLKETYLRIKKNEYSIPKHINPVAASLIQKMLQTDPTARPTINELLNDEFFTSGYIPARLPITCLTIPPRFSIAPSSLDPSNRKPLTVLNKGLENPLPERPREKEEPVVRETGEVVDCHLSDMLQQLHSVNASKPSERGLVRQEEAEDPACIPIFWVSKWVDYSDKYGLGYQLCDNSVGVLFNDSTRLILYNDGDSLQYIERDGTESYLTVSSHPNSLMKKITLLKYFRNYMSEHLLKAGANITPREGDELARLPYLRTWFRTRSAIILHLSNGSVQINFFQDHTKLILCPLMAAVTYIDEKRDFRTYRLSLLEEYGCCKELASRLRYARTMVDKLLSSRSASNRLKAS
T1 sequence (Q04759 whole entry, looked up): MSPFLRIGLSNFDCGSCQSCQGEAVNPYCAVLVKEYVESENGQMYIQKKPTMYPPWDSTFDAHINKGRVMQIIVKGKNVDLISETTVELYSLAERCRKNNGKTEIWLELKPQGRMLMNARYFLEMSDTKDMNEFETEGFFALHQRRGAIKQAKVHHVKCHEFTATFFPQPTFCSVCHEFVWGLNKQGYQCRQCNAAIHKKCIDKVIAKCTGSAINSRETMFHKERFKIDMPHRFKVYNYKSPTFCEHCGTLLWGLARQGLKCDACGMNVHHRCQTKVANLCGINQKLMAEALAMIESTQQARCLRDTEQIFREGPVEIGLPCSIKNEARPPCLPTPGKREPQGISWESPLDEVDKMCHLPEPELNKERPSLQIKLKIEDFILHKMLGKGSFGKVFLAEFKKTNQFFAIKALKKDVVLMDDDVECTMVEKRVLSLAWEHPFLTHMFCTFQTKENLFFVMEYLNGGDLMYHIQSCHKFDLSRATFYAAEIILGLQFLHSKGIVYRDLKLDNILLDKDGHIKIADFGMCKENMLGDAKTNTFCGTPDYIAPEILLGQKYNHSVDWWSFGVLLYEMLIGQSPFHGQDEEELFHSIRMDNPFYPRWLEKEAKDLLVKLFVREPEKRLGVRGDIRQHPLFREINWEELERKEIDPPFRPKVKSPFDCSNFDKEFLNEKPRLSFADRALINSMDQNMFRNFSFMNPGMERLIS
Chain of Casein kinase II subunit alpha' (Homo sapiens) (P19784 whole entry, looked up): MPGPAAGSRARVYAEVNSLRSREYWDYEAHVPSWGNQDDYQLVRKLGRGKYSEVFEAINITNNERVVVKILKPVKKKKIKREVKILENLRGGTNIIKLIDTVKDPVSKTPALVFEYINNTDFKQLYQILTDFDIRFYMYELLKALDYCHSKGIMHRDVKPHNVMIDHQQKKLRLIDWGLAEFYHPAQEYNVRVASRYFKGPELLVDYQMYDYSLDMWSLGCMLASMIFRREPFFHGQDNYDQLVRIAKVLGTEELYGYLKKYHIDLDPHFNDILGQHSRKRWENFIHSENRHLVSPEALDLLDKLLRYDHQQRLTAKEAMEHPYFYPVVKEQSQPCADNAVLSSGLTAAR
Chain of Insulin-like growth factor 1 receptor (P08069 31-736 limits assumed): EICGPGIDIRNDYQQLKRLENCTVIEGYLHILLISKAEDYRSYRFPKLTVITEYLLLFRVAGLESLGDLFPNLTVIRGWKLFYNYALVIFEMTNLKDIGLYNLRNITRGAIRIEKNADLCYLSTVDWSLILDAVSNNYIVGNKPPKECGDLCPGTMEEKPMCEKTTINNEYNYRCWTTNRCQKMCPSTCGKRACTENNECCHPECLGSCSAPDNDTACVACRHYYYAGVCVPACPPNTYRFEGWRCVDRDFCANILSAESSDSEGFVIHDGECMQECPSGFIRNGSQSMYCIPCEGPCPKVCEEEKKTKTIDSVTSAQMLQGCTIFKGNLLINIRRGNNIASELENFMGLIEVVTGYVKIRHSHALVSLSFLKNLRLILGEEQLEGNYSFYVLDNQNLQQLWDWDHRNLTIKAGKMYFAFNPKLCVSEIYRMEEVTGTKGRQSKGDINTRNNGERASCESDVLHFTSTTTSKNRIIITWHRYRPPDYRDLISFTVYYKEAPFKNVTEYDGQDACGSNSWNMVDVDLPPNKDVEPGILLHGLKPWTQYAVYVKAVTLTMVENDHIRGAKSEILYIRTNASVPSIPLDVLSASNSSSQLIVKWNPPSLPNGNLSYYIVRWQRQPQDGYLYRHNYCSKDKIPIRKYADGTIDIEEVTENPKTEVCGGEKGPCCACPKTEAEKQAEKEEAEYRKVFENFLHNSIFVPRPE
Chain of Insulin-like growth factor 1 receptor (P08069 741-1367 limits assumed): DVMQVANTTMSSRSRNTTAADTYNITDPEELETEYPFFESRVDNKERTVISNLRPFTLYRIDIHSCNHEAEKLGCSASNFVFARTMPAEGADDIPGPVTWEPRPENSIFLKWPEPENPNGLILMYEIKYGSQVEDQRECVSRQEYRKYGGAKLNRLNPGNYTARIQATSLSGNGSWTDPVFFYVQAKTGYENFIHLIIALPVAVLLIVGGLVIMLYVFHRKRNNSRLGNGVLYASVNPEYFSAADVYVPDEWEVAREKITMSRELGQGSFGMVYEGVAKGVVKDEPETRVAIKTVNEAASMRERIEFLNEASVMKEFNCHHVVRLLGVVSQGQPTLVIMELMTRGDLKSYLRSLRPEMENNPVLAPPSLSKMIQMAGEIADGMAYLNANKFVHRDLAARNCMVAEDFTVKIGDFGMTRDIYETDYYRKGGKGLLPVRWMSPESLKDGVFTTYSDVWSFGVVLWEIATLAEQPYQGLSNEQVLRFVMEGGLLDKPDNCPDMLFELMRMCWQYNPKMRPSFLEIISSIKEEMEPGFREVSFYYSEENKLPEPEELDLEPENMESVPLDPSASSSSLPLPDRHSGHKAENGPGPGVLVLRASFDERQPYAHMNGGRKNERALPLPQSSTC
Chain of Casein kinase I isoform gamma-1 (Homo sapiens) (Q9HCP0 whole entry, looked up, canonical isoform): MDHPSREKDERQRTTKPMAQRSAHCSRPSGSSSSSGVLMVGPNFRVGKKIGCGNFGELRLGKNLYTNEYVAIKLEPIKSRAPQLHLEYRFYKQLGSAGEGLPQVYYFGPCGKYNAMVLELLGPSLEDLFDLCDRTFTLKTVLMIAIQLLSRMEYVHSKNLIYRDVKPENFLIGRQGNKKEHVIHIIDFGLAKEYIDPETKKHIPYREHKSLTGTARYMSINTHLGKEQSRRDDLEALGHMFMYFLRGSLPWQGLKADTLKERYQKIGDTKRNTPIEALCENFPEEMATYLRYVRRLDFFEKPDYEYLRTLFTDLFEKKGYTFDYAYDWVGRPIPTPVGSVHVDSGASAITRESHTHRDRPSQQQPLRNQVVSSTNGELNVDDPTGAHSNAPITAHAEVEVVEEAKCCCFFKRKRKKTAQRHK
Chain of Calcium/calmodulin-dependent protein kinase type II subunit gamma (Homo sapiens) (Q13555 whole entry, the tested form may be a part): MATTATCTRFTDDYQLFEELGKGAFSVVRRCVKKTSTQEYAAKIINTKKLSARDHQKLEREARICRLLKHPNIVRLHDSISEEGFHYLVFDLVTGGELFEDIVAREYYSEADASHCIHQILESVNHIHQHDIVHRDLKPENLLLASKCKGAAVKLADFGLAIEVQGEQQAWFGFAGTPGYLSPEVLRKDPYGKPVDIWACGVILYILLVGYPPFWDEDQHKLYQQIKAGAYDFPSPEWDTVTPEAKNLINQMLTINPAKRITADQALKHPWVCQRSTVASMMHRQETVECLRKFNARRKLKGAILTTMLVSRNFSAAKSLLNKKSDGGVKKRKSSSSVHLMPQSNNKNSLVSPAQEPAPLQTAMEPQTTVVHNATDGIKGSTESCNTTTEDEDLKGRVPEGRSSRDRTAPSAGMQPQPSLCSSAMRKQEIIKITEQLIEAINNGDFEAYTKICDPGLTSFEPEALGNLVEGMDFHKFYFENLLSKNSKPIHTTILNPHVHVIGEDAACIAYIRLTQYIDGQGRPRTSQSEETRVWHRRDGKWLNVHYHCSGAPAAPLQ
Chain of Kappa-type opioid receptor (P41145 whole entry): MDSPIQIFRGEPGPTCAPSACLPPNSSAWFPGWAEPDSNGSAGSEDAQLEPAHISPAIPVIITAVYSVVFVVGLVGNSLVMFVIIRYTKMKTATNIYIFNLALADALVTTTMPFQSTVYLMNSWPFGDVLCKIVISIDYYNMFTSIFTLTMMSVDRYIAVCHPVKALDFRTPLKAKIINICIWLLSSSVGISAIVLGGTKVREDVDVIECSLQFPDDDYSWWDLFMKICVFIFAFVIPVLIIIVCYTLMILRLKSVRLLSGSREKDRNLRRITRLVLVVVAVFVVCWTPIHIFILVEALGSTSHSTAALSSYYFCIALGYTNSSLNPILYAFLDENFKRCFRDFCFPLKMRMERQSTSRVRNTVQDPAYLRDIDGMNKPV
Chain of Phosphorylase b kinase gamma catalytic chain, skeletal muscle/heart isoform (Homo sapiens) (Q16816 whole entry, looked up, canonical isoform): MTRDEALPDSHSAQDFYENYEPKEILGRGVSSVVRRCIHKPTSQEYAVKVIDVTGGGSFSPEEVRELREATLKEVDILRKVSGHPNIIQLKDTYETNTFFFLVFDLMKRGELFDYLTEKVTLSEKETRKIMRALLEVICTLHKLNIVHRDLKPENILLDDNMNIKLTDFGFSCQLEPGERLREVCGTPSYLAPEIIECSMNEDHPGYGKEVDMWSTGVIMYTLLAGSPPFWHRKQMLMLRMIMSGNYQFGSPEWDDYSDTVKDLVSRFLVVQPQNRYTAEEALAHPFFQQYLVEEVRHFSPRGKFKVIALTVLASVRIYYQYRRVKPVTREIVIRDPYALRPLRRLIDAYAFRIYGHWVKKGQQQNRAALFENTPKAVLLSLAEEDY

In the case of `Cn1cc(-n2cnc3c(NCc4nc5cc(Cl)c(Cl)cc5[nH]4)nc(N4CCOCC4)nc32)cn1`, the % of inhibition in [1] was -2.22%.
`COCC(=O)NC/C=C/c1ccc2ncnc(Nc3ccc(Oc4ccc(C)nc4)c(C)c3)c2c1` [CP-724714]: the % of control in experiment [2] worked out at 69%.
For `O=C(NOC[C@H](O)CO)c1ccc(F)c(F)c1Nc1ccc(I)cc1F`, the % of control in experiment [3] stood at 94%.
As to `CNC(=O)Nc1ccc(-c2nc(N3CC4CCC(C3)O4)c3cnn(C4CCC5(CC4)OCCO5)c3n2)cc1`, the % of control in [4] turned out to be 100%.
`Cc1cc([C@@H](C)Nc2ccccc2C(=O)O)c2nc(N3CCOCC3)cc(=O)n2c1` [AZD-6482]: the % of control in experiment [5] was 95%.
As for `CC[C@@H]1[C@H](F)C(=O)N[C@@H]1COc1nccc2cc(C(N)=O)c(OC)cc12` [ZIMLOVISERTIB], the % of inhibition in experiment [6] is 16.4%; in experiment [7] (at 0.01 µM) it was 7.9%; in experiment [7] (at 0.04 µM) it was 2%; in experiment [7] (at 0.2 µM), -17.6%; in experiment [7] (at 1 µM), -0.9%; in [7] (at 5 µM), -0.9%.
On to `C=CC(=O)Nc1cc(-n2c(=O)ccc3cnc4ccc(-c5ccc(NS(C)(=O)=O)cc5)cc4c32)ccc1C`, for which the % of control in [8] (at 1 µM) came to 79%; in experiment [8] (at 10 µM), 100%; in [9] (at 1 µM), 100%; in experiment [9] (at 10 µM), 75%; in experiment [10] (at 1 µM), 100%; in experiment [10] (at 10 µM), 67%. In addition, the % of control turned out to be 100% in experiment [11] (at 1 µM) and 80% in experiment [11] (at 10 µM).
The compound `CN(C)C/C=C/C(=O)Nc1ccc(C(=O)N2CCCC(Nc3ncc(Cl)c(-c4c[nH]c5ccccc45)n3)C2)cc1` (stereo unspecified) displayed a % of control in experiment [12] of 87%.
`COc1cc(Nc2nc(C)cc(-c3cnn4nc(OC)ccc34)n2)cc(C(F)(F)F)c1` came in with a % of control in experiment [13] of 100%.
Regarding `O[C@H]1CC[C@H](Nc2ncc3nc(Nc4c(F)cc(F)cc4F)n([C@H]4CCOC4)c3n2)CC1`, the % of control in experiment [14] and in experiment [15] was 100% each time.
`CCC(=O)N1CCN(c2ccc(-n3c(=O)ccc4cnc5ccc(-c6cnc7ccccc7c6)cc5c43)cc2C(F)(F)F)CC1` yielded a % of control in experiment [16] of 93%.
As to `CCn1c(-c2nc3cc(C(=O)N4CCCC(N)C4)ccc3n2C)cc2ccccc21` (stereo unspecified), in [17], the pXC50 is > 4 M.
In experiment [18], `COc1cc(N(C)c2ccnc3ccc(C(F)(F)F)cc23)cc(OC)c1OC` had a % binding of 89%.
